US9833497B2, “Human originated EGF domain proteins and use of the same” (CHENGDU SOURCEBIO LIMITED-LIABILITY COMPANY, priority 2013, dated 2017)

Columns and labels:
Assay type in all cases: cell-based
Aeromonas hydrophila = experiment: MIC against Gram-negative bacteria: Aeromonas hydrophila
Procedure, shortened: (§1)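 Inocula prepared by growing LB cultures at 37° C to 0.5 McFarland, centrifuging at 4000×g, and resuspending in fresh medium. Final density 5×10^5 CFU/mL per well with two-fold dilutions of purified EGF domain protein; shaking incubation at 37° C.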

Serratia marcescens = experiment: MIC against Gram-negative bacteria: Serratia marcescens
Procedure, shortened: as §1

E. coli DH5α = experiment: Antibacterial activity: MIC and growth curve against E. coli DH5α in 96-well plate; details: minimal inhibitory concentration against E. coli DH5α; 96-well plate, 5×10^5 CFU/mL, 37° C., judged after 8 h
Procedure, shortened: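 MIC taken as lowest protein level with no bacterial growth, tracked by A600 every 30 min during 37 °C, 175 rpm culture. Two-fold protein series 50-12.5 μg/mL final, triplicate wells, against 5×10^5 CFU/mL of LB-washed mid-log cells.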

E. coli BL21 = experiment: MIC against Gram-negative bacteria: E. coli BL21; details: for MIC (μg/mL) E. coli BL21 / MIC / MIC against E. coli BL21: E. coli BL21
Procedure, shortened: as §1

Enterobacter cloacae = experiment: MIC against Gram-negative bacteria: Enterobacter cloacae
Procedure, shortened: as §1

Proteus vulgaris = experiment: MIC against Gram-negative bacteria: Proteus vulgaris
Procedure, shortened: as §1

Klebsiella pneumonia = experiment: MIC against Gram-negative bacteria: Klebsiella pneumonia
Procedure, shortened: as §1

Citrobacter diversus = experiment: MIC against Gram-negative bacteria: Citrobacter diversus
Procedure, shortened: as §1

Pseudomonas aeruginosa = experiment: MIC against Gram-negative bacteria: Pseudomonas aeruginosa
Procedure, shortened: as §1

Proteus mirabilis = experiment: MIC against Gram-negative bacteria: Proteus mirabilis
Procedure, shortened: as §1

Moraxella catarrhalis = experiment: MIC against Gram-negative bacteria: Moraxella catarrhalis
Procedure, shortened: as §1

[1] = Aeromonas hydrophila, 96-well plate, 5×10^5 CFU/mL, 37° C., 10 h
[2] = Serratia marcescens, 96-well plate, 5×10^5 CFU/mL, 37° C., 10 h
[3] = 96-well plate, 5×10^5 CFU/mL, 37° C., 10 h
[4] = Enterobacter cloacae, 96-well plate, 5×10^5 CFU/mL, 37° C., 10 h
[5] = Proteus vulgaris, 96-well plate, 5×10^5 CFU/mL, 37° C., 10 h
[6] = Klebsiella pneumonia, 96-well plate, 5×10^5 CFU/mL, 37° C., 10 h
[7] = Citrobacter diversus, 96-well plate, 5×10^5 CFU/mL, 37° C., 10 h
[8] = Pseudomonas aeruginosa, 96-well plate, 5×10^5 CFU/mL, 37° C., 10 h
[9] = Proteus mirabilis, 96-well plate, 5×10^5 CFU/mL, 37° C., 10 h
[10] = Moraxella catarrhalis, 96-well plate, 5×10^5 CFU/mL, 37° C., 10 h
[11] = 10 h cultivation at 37° C., 5×10^5 CFU/mL, two-fold serial dilution
[12] = A. hydrophila, 10 h cultivation at 37° C., 5×10^5 CFU/mL
[13] = S. marcescens, 10 h cultivation at 37° C., 5×10^5 CFU/mL
[14] = 10 h cultivation at 37° C., 5×10^5 CFU/mL
[15] = E. cloacae, 10 h cultivation at 37° C., 5×10^5 CFU/mL
[16] = P. vulgaris, 10 h cultivation at 37° C., 5×10^5 CFU/mL
[17] = K. pneumonia, 10 h cultivation at 37° C., 5×10^5 CFU/mL
[18] = C. diversus, 10 h cultivation at 37° C., 5×10^5 CFU/mL
[19] = P. aeruginosa, 10 h cultivation at 37° C., 5×10^5 CFU/mL
[20] = P. mirabilis, 10 h cultivation at 37° C., 5×10^5 CFU/mL
[21] = M. catarrhalis, 10 h cultivation at 37° C., 5×10^5 CFU/mL

PRT108 (VKDHCSKHSPCQKGGTCVNMPSGPHCLCPQHLTGNHCQ; listed as Homo sapiens)
MIC (μg/mL) A. hydrophila (Aeromonas hydrophila; [1]): 12.5 µg/mL | MIC (μg/mL) S. marcescens (Serratia marcescens; [2]): 12.5 µg/mL | MIC (E. coli DH5α): 50 mg/L | MIC (μg/mL) E. coli BL21 (E. coli BL21; [3]): 12.5 µg/mL | MIC (μg/mL) E. cloacae (Enterobacter cloacae; [4]): 25 µg/mL | MIC (μg/mL) P. vulgaris (Proteus vulgaris; [5]): 12.5 µg/mL | MIC (μg/mL) K. pneumonia (Klebsiella pneumonia; [6]): 50 µg/mL | MIC (μg/mL) C. diversus (Citrobacter diversus; [7]): 25 µg/mL | MIC (μg/mL) P. aeruginosa (Pseudomonas aeruginosa; [8]): 25 µg/mL | MIC (μg/mL) P. mirabilis (Proteus mirabilis; [9]): 12.5 µg/mL | MIC (μg/mL) M. catarrhalis (Moraxella catarrhalis; [10]): 50 µg/mL

PRT948 (DINECLSNPCSSEGSLDCIQLTNDYLCVCRSAFTGRHCE; listed as Homo sapiens)
MIC (Aeromonas hydrophila; A. hydrophila, 10 h cultivation at 37° C.): 25 mg/L | MIC (Serratia marcescens; S. marcescens, 10 h cultivation at 37° C.): 50 mg/L | MIC (E. coli DH5α): 50 mg/L | MIC (E. coli BL21; 10 h cultivation at 37° C.): 12.5 mg/L | MIC (Enterobacter cloacae; E. cloacae, 10 h cultivation at 37° C.): 50 mg/L | MIC (Proteus vulgaris; P. vulgaris, 10 h cultivation at 37° C.): 12.5 mg/L | MIC (Klebsiella pneumonia; K. pneumonia, 10 h cultivation at 37° C.): 12.5 mg/L | MIC (Citrobacter diversus; C. diversus, 10 h cultivation at 37° C.): 12.5 mg/L | MIC (Pseudomonas aeruginosa; P. aeruginosa, 10 h cultivation at 37° C.): 50 mg/L | MIC (Proteus mirabilis; P. mirabilis, 10 h cultivation at 37° C.): 25 mg/L | MIC (Moraxella catarrhalis; M. catarrhalis, 10 h cultivation at 37° C.): 50 mg/L

PRT1087 (HEEPCGPSHKSFCLNGGLCYVIPTIPSPFCRCVENYTGARCE; listed as Homo sapiens)
MIC A. hydrophila (Aeromonas hydrophila; [11]): 12.5 mg/L | MIC S. marcescens (Serratia marcescens; [11]): 25 mg/L | MIC (E. coli DH5α): 50 mg/L | MIC E. coli BL21 (E. coli BL21; [11]): 12.5 mg/L | MIC E. cloacae (Enterobacter cloacae; [11]): 50 mg/L | MIC P. vulgaris (Proteus vulgaris; [11]): 25 mg/L | MIC K. pneumonia (Klebsiella pneumonia; [11]): 50 mg/L | MIC C. diversus (Citrobacter diversus; [11]): 25 mg/L | MIC P. aeruginosa (Pseudomonas aeruginosa; [11]): 50 mg/L | MIC P. mirabilis (Proteus mirabilis; [11]): 25 mg/L | MIC M. catarrhalis (Moraxella catarrhalis; [11]): 50 mg/L

PRT240 (NINECEVEPCKNGGICTDLVANYSCECPGEFMGRNCQ; listed as Homo sapiens)
MIC (μg/mL) A. hydrophila (Aeromonas hydrophila; [12]): 12.5 µg/mL | MIC (μg/mL) S. marcescens (Serratia marcescens; [13]): 12.5 µg/mL | MIC (E. coli DH5α): 25 mg/L | MIC (μg/mL) E. coli BL21 (E. coli BL21; [14]): 12.5 µg/mL | MIC (μg/mL) E. cloacae (Enterobacter cloacae; [15]): 25 µg/mL | MIC (μg/mL) P. vulgaris (Proteus vulgaris; [16]): 100 µg/mL | MIC (μg/mL) K. pneumonia (Klebsiella pneumonia; [17]): 12.5 µg/mL | MIC (μg/mL) C. diversus (Citrobacter diversus; [18]): 25 µg/mL | MIC (μg/mL) P. aeruginosa (Pseudomonas aeruginosa; [19]): 25 µg/mL | MIC (μg/mL) P. mirabilis (Proteus mirabilis; [20]): 100 µg/mL | MIC (μg/mL) M. catarrhalis (Moraxella catarrhalis; [21]): 12.5 µg/mL

PRT63 (GCNFNNGGCHQDCFEGGDGSFLCGCRPGFRLLDDLVTCA; listed as Homo sapiens)
MIC (μg/mL) A. hydrophila (Aeromonas hydrophila; [1]): 25 µg/mL | MIC (μg/mL) S. marcescens (Serratia marcescens; [2]): 12.5 µg/mL | MIC (E. coli DH5α): 12.5 mg/L | MIC (μg/mL) E. coli BL21 (E. coli BL21; [3]): 25 µg/mL | MIC (μg/mL) E. cloacae (Enterobacter cloacae; [4]): 12.5 µg/mL | MIC (μg/mL) P. vulgaris (Proteus vulgaris; [5]): 25 µg/mL | MIC (μg/mL) K. pneumonia (Klebsiella pneumonia; [6]): 25 µg/mL | MIC (μg/mL) C. diversus (Citrobacter diversus; [7]): 12.5 µg/mL | MIC (μg/mL) P. aeruginosa (Pseudomonas aeruginosa; [8]): 12.5 µg/mL | MIC (μg/mL) P. mirabilis (Proteus mirabilis; [9]): 12.5 µg/mL | MIC (μg/mL) M. catarrhalis (Moraxella catarrhalis; [10]): 25 µg/mL

PRT122 (CAPCQGNGVPVLKGSRCDCICPVGSQGLACE; listed as Homo sapiens)
MIC (μg/mL) A. hydrophila (Aeromonas hydrophila; [1]): 12.5 µg/mL | MIC (μg/mL) S. marcescens (Serratia marcescens; [2]): 12.5 µg/mL | MIC (E. coli DH5α): 12.5 mg/L | MIC (μg/mL) E. coli BL21 (E. coli BL21; [3]): 12.5 µg/mL | MIC (μg/mL) E. cloacae (Enterobacter cloacae; [4]): 12.5 µg/mL | MIC (μg/mL) P. vulgaris (Proteus vulgaris; [5]): 25 µg/mL | MIC (μg/mL) K. pneumonia (Klebsiella pneumonia; [6]): 12.5 µg/mL | MIC (μg/mL) C. diversus (Citrobacter diversus; [7]): 12.5 µg/mL | MIC (μg/mL) P. aeruginosa (Pseudomonas aeruginosa; [8]): 12.5 µg/mL | MIC (μg/mL) P. mirabilis (Proteus mirabilis; [9]): 12.5 µg/mL | MIC (μg/mL) M. catarrhalis (Moraxella catarrhalis; [10]): 25 µg/mL

PRT1307 (HECPGGAETPCNGHGTCLDGMDRNGTCVCQENFRGSACQ; listed as Homo sapiens)
MIC against A. hydrophila (Aeromonas hydrophila; [1]): 50 mg/L | MIC against S. marcescens (Serratia marcescens; [2]): 25 mg/L | MIC (E. coli DH5α): 12.5 mg/L | MIC against E. coli BL21 (E. coli BL21; [3]): 50 mg/L | MIC against E. cloacae (Enterobacter cloacae; [4]): 100 mg/L | MIC against P. vulgaris (Proteus vulgaris; [5]): 12.5 mg/L | MIC against K. pneumonia (Klebsiella pneumonia; [6]): 50 mg/L | MIC against C. diversus (Citrobacter diversus; [7]): 12.5 mg/L | MIC against P. aeruginosa (Pseudomonas aeruginosa; [8]): 12.5 mg/L | MIC against P. mirabilis (Proteus mirabilis; [9]): 25 mg/L | MIC against M. catarrhalis (Moraxella catarrhalis; [10]): 50 mg/L

PRT1288 (ADGPCHGHKCVHGQCVPLDALSYSCQCQDGYSGALCN; listed as Homo sapiens)
MIC against A. hydrophila (Aeromonas hydrophila; [1]): 12.5 mg/L | MIC against S. marcescens (Serratia marcescens; [2]): 12.5 mg/L | MIC (E. coli DH5α): 50 mg/L | MIC against E. coli BL21 (E. coli BL21; [3]): 25 mg/L | MIC against E. cloacae (Enterobacter cloacae; [4]): 50 mg/L | MIC against P. vulgaris (Proteus vulgaris; [5]): 25 mg/L | MIC against K. pneumonia (Klebsiella pneumonia; [6]): 25 mg/L | MIC against C. diversus (Citrobacter diversus; [7]): 12.5 mg/L | MIC against P. aeruginosa (Pseudomonas aeruginosa; [8]): 12.5 mg/L | MIC against P. mirabilis (Proteus mirabilis; [9]): 12.5 mg/L | MIC against M. catarrhalis (Moraxella catarrhalis; [10]): 50 mg/L

PRT317 (VTDYCQLVRYLCQNGRCIPTPGSCRCECNKGFQLDLRGECI; listed as Homo sapiens)
MIC (Aeromonas hydrophila; [12]): 25 mg/L | MIC (Serratia marcescens; [13]): 12.5 mg/L | MIC (E. coli DH5α): 12.5 mg/L | MIC (E. coli BL21; [14]): 50 mg/L | MIC (Enterobacter cloacae; [15]): 12.5 mg/L | MIC (Proteus vulgaris; [16]): 12.5 mg/L | MIC (Klebsiella pneumonia; [17]): 50 mg/L | MIC (Citrobacter diversus; [18]): 12.5 mg/L | MIC (Pseudomonas aeruginosa; [19]): 12.5 mg/L | MIC (Proteus mirabilis; [20]): 12.5 mg/L | MIC (Moraxella catarrhalis; [21]): 25 mg/L

PRT227 (KGNNCRDSTLCPAYATCTNTVDSYYCACKQGFLSSNGQNHFKDPGVRCK; listed as Homo sapiens)
MIC (μg/mL) A. hydrophila (Aeromonas hydrophila; [12]): 12.5 µg/mL | MIC (μg/mL) S. marcescens (Serratia marcescens; [13]): 50 µg/mL | MIC (E. coli DH5α): 12.5 mg/L | MIC (μg/mL) E. coli BL21 (E. coli BL21; [14]): 12.5 µg/mL | MIC (μg/mL) E. cloacae (Enterobacter cloacae; [15]): 12.5 µg/mL | MIC (μg/mL) P. vulgaris (Proteus vulgaris; [16]): 25 µg/mL | MIC (μg/mL) K. pneumonia (Klebsiella pneumonia; [17]): 12.5 µg/mL | MIC (μg/mL) C. diversus (Citrobacter diversus; [18]): 50 µg/mL | MIC (μg/mL) P. aeruginosa (Pseudomonas aeruginosa; [19]): 12.5 µg/mL | MIC (μg/mL) P. mirabilis (Proteus mirabilis; [20]): 12.5 µg/mL | MIC (μg/mL) M. catarrhalis (Moraxella catarrhalis; [21]): 25 µg/mL
